Test results: patent US20260216175A1, “COMPLEMENT INHIBITION” (Apellis Pharmaceuticals, Inc., priority 2023, published 2026)

Tested on: not listed separately
Assay: biological activity of enantiomers (assay not specified)
Details: first eluting vs second eluting enantiomer

| Compound | biological activity, comparison of enantiomers |
| --- | --- |
| COc1cc(C)c2[nH]ccc2c1CN1CCN(CC(F)F)CC1c1ccc(C(=O)O)c(O)c1 (single isomer, unassigned) [Example 68, 4-(4-(2,2-difluoroethyl)-1-((5-methoxy-7-methyl-1H-indol-4-yl)methyl)piperazin-2-yl)-2-hydroxybenzoic acid] | more active enantiomer |

Tested on: complement activation
Assay: not given
Details: fold activity relative to compstatin amidated at the C-terminus; based on published data and assays (WO2004/026328, WO2007044668, Mallik 2005; Katragadda 2006); cited from earlier work

| Compound | Activity over compstatin [× more] |
| --- | --- |
| Ac-ICVWQDWGAHRCdT-COOH [Ac-V4W/H9A/T13dT —OH] | 55 |
| H-GICV(6fW)QD(6fW)GAHRCTN-COOH [+G/V4(6fW)/W7(6fW)H9A + N—OH] | 126 |
| Ac-ICV(Bpa)QDWGAHRCT-CONH2 [Ac-V4(Bpa)/H9A] | 86 |
| Ac-ICVWQD(5fW)GAHRCT-CONH2 [Ac-V4W/W7(5fW)/H9A] | 121 |
| Ac-ICV(2-IgI)QDWGAHRCT-COOH [Ac-V42IgI/H9A —OH] | 37 |
| Ac-ICV(1-Nal)QDWGAHRCT-COOH [Ac V4(1-Nal)/H9A —OH] | 30 |
| Ac-ICV(2-Nal)QDWGAHRCT-CONH2 [Ac-V4(2-Nal)/H9A] | 99 |
| Ac-ICVDhtQDWGAHRCT-COOH [Ac-V4Dht/H9A —OH] | 5 |
| Ac-ICV(2-Nal)QDWGAHRCT-COOH [Ac V4(2-Nal)/H9A —OH] | 38 |
| Ac-ICVVQDWGHHRCT-CONH2 [Ac-compstatin] | 3 |
| Ac-ICV(2-IgI)QDWGAHRCT-CONH2 [Ac-V42IgI/H9A] | 39 |
| Ac-ICV(Bpa)QDWGAHRCT-COOH [Ac-V4(Bpa)/H9A —OH] | 49 |
| Ac-ICVYQDWGAHRCT-CONH2 [Ac-V4Y/H9A] | 14 |
| Ac-ICVWQDWGAHRCT-CONH2 (Ac-ICVWQDWGAHRCT-NH2; cysteine pairing not given here) [Ac-V4W/H9A, compstatin analog] | 45 |
